Columns and labels:
Experiment in all cases: radiometric filter-binding kinase assay, Kinase HotSpot
Conditions in all cases: compound 0.5 µM; ATP 10 µM
DSTYK (human) = DSTYK (human) (UniProt Q6XUX3)
ABL1 (human) = ABL1 (human) (UniProt P00519)
PKN2 (human) = PKN2 (human) (UniProt Q16513)
CDK9 CCNK (human) = CDK9 CCNK (human) (UniProt O75909+P50750)
CDK4 CCND3 (human) = CDK4 CCND3 (human) (UniProt P30281+P11802)
CSNK1A1 (human) = CSNK1A1 (human) (UniProt P48729)
FER (human) = FER (human) (UniProt P16591)
MAPK8 (human) = MAPK8 (human) (UniProt P45983)
IKBKB (human) = IKBKB (human) (UniProt O14920)
DAPK3 (human) = DAPK3 (human) (UniProt O43293)
CSNK2A1 (human) = CSNK2A1 (human) (UniProt P68400)
PRKD3 (human) = PRKD3 (human) (UniProt O94806)
DCLK2 (human) = DCLK2 (human) (UniProt Q8N568)
ACVR1B (human) = ACVR1B (human) (UniProt P36896)
SLK (human) = SLK (human) (UniProt Q9H2G2)
CSNK1E (human) = CSNK1E (human) (UniProt P49674)
CAMK2D (human) = CAMK2D (human) (UniProt Q13557)
PRKD1 (human) = PRKD1 (human) (UniProt Q15139)
PKN1 (human) = PKN1 (human) (UniProt Q16512)
AKT3 (human) = AKT3 (human) (UniProt Q9Y243)
STK33 (human) = STK33 (human) (UniProt Q9BYT3)
IKBKE (human) = IKBKE (human) (UniProt Q14164)
SGK2 (human) = SGK2 (human) (UniProt Q9HBY8)
HIPK3 (human) = HIPK3 (human) (UniProt Q9H422)
JAK2 JH1 JH2 (human) = JAK2 JH1 JH2 (human) (UniProt O60674)
DYRK1A (human) = DYRK1A (human) (UniProt Q13627)
CLK2 (human) = CLK2 (human) (UniProt P49760)
STK11 (human) = STK11 (human) (UniProt Q15831)
PRKCE (human) = PRKCE (human) (UniProt Q02156)
FLT1 (human) = FLT1 (human) (UniProt P17948)
PAK4 (human) = PAK4 (human) (UniProt O96013)
ULK2 (human) = ULK2 (human) (UniProt Q8IYT8)
PRKX (human) = PRKX (human) (UniProt P51817)
STK17A (human) = STK17A (human) (UniProt Q9UEE5)
PRKCD (human) = PRKCD (human) (UniProt Q05655)
MAP3K14 (human) = MAP3K14 (human) (UniProt Q99558)
PAK7 (human) = PAK7 (human) (UniProt Q9P286)
CDK5 CDK5R1 p35 (human) = CDK5 CDK5R1 p35 (human) (UniProt Q00535+Q15078)
MET (human) = MET (human) (UniProt P08581)
PHKG1 (human) = PHKG1 (human) (UniProt Q16816)
GRK5 (human) = GRK5 (human) (UniProt P34947)
RPS6KB1 (human) = RPS6KB1 (human) (UniProt P23443)
Chain of RPS6KB1 (human) (P23443 whole entry, looked up): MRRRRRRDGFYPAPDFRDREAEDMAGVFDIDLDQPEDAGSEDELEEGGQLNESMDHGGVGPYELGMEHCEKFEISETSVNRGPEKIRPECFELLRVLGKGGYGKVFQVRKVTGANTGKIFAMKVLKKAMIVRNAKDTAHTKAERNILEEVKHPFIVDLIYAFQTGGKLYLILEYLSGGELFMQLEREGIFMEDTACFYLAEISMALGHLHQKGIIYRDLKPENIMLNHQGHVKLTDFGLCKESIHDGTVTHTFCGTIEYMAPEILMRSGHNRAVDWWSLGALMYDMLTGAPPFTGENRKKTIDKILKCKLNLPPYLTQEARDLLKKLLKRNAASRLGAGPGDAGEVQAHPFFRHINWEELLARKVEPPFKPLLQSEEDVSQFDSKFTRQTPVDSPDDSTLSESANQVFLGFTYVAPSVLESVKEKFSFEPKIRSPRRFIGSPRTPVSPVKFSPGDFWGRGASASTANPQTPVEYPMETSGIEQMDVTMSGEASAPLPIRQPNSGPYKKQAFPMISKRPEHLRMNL

Chain of HIPK3 (human) (Q9H422 whole entry, looked up): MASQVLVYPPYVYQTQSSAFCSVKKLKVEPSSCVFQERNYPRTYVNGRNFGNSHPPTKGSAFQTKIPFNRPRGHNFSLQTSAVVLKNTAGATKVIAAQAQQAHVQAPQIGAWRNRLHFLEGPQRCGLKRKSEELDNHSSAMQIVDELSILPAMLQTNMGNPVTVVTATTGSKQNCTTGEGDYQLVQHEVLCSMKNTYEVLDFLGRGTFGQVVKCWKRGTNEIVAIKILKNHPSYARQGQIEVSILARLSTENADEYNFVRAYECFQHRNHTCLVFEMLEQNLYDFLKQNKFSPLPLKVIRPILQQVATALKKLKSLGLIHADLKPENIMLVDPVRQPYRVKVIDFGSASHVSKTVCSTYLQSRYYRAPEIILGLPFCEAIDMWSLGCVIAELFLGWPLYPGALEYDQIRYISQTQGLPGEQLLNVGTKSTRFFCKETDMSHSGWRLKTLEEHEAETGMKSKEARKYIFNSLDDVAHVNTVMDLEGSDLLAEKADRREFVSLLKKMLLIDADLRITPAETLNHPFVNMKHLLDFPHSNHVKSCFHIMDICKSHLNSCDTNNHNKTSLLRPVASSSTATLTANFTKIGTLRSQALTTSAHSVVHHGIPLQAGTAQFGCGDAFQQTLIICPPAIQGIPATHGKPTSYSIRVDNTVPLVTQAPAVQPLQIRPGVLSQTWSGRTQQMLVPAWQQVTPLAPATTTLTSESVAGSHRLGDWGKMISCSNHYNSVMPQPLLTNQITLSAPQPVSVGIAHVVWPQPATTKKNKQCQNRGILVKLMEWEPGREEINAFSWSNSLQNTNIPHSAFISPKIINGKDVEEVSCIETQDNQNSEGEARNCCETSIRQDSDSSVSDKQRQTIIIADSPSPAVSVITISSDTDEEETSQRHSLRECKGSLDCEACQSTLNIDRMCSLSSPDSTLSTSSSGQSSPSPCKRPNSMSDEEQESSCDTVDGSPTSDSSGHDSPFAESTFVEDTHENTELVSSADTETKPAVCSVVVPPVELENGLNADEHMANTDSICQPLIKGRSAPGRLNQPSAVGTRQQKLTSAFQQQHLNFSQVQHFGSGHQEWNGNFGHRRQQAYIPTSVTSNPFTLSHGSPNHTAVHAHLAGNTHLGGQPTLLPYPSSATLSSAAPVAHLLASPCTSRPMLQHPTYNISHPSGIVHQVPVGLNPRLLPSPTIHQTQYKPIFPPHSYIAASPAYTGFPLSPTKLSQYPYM
Chain of PKN2 (human) (Q16513 whole entry, looked up): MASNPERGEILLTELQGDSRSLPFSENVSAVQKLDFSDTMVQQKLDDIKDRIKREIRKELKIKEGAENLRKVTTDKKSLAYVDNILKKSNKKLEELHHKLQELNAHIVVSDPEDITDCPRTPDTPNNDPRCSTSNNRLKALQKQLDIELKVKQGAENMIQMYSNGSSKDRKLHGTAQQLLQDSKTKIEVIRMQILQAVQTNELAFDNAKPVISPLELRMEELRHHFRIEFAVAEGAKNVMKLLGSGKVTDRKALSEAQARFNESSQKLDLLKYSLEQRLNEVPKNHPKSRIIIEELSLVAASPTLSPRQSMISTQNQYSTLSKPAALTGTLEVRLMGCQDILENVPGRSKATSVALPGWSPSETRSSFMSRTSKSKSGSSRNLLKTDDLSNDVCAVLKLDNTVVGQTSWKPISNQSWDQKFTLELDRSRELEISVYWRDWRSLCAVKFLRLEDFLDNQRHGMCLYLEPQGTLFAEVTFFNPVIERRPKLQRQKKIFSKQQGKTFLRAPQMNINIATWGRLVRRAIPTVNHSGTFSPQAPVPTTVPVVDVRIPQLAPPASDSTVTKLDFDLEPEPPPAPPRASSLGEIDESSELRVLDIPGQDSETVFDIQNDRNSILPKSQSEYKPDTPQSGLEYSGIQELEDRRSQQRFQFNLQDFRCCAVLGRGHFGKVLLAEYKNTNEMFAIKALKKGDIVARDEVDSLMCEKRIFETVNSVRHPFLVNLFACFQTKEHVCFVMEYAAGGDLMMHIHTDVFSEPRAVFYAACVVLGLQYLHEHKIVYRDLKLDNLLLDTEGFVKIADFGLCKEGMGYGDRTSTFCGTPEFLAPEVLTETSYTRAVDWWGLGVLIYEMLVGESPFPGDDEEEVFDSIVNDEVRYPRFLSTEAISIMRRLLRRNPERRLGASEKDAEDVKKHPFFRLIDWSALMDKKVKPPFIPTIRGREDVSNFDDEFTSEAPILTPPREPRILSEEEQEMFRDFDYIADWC
Chain of CDK4 CCND3 (human) (P11802 whole entry, looked up): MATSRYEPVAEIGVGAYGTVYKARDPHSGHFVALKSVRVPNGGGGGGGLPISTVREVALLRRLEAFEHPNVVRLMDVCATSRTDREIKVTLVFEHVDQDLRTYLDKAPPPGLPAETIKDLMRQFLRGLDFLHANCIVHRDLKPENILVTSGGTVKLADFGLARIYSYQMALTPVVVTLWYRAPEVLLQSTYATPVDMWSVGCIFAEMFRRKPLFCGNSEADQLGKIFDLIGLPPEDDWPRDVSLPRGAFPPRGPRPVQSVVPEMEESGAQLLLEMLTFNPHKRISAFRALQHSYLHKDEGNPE
Chain of CDK4 CCND3 (human) (P30281 whole entry, looked up): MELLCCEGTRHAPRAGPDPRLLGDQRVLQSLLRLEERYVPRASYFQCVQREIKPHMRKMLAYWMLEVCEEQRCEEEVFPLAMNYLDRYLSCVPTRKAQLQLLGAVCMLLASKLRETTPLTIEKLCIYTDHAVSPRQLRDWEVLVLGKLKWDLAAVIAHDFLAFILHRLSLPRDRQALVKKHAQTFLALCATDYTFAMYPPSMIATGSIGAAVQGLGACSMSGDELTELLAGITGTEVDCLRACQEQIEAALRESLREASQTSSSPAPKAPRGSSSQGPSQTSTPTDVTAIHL
Chain of ULK2 (human) (Q8IYT8 whole entry, looked up): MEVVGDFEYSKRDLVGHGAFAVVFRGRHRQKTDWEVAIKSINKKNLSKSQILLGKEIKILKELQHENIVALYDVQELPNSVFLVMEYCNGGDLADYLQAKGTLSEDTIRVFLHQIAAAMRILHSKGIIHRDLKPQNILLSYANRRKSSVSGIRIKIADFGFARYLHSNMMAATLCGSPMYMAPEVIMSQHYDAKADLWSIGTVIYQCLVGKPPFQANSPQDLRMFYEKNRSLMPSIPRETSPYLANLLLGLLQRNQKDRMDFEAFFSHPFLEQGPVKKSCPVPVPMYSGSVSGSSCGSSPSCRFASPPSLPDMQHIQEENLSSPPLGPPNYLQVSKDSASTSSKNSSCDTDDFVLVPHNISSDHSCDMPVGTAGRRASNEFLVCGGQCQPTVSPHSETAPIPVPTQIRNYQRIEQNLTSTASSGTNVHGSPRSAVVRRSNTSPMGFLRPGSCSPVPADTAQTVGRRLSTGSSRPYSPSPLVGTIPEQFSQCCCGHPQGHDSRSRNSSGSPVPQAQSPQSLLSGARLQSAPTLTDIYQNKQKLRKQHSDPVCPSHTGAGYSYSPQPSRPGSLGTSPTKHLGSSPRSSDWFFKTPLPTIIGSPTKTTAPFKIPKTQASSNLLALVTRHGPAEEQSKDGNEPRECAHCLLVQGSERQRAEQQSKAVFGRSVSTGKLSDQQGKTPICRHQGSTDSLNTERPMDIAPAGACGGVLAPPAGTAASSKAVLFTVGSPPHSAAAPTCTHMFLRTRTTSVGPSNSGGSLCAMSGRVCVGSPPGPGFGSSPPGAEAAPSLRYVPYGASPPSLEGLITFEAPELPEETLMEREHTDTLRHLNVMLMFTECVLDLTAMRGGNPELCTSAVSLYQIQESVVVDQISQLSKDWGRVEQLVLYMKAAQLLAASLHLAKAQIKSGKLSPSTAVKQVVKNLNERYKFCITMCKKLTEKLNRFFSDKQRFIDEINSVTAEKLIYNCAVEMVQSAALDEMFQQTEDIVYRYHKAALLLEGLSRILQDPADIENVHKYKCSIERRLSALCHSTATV
Chain of STK17A (human) (Q9UEE5 whole entry, looked up): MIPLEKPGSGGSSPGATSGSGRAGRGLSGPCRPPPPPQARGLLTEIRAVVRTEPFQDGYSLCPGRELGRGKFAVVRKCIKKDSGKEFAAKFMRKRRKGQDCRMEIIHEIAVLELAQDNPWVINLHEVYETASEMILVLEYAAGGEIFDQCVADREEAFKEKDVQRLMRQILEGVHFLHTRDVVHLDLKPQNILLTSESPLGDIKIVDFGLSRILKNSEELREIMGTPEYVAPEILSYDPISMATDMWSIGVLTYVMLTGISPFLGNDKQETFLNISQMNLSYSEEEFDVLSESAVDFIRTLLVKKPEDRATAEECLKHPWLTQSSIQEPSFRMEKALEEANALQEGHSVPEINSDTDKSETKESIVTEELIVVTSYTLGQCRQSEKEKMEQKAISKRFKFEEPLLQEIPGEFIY

## COc1ccc(C(=O)Nc2sc3c(c2C(N)=O)CCCC3)cc1OC
DSTYK (human)
  residual activity: 92.2%
ABL1 (human)
  residual activity: 101%
PKN2 (human)
  residual activity: 98.5%
CDK9 CCNK (human)
  residual activity: 85.7%
CDK4 CCND3 (human)
  residual activity: 98.8%
CSNK1A1 (human)
  residual activity: 108%
FER (human)
  residual activity: 89.8%
MAPK8 (human)
  residual activity: 94.7%
IKBKB (human)
  residual activity: 87.6%
DAPK3 (human)
  residual activity: 102%
CSNK2A1 (human)
  residual activity: 98.8%
PRKD3 (human)
  residual activity: 103%
DCLK2 (human)
  residual activity: 98.6%
ACVR1B (human)
  residual activity: 101%
SLK (human)
  residual activity: 92.5%
CSNK1E (human)
  residual activity: 94%
CAMK2D (human)
  residual activity: 104%
PRKD1 (human)
  residual activity: 99.6%
PKN1 (human)
  residual activity: 96.3%
AKT3 (human)
  residual activity: 102%
STK33 (human)
  residual activity: 99.5%
IKBKE (human)
  residual activity: 106%
SGK2 (human)
  residual activity: 100%
HIPK3 (human)
  residual activity: 105%
JAK2 JH1 JH2 (human)
  residual activity: 99.9%
DYRK1A (human)
  residual activity: 97.4%
CLK2 (human)
  residual activity: 86.5%
STK11 (human)
  residual activity: 103%
PRKCE (human)
  residual activity: 95%
FLT1 (human)
  residual activity: 99.1%
PAK4 (human)
  residual activity: 95.9%
ULK2 (human)
  residual activity: 105%
PRKX (human)
  residual activity: 101%
STK17A (human)
  residual activity: 98.5%
PRKCD (human)
  residual activity: 81.8%
MAP3K14 (human)
  residual activity: 88%
PAK7 (human)
  residual activity: 96.6%
CDK5 CDK5R1 p35 (human)
  residual activity: 90.8%
MET (human)
  residual activity: 82.8%
PHKG1 (human)
  residual activity: 94.3%
GRK5 (human)
  residual activity: 104%
RPS6KB1 (human)
  residual activity: 84.3%

## CC(C)(C)c1cc(C=C(C#N)C#N)cc(Br)c1O
DSTYK (human)
  residual activity: 105%
ABL1 (human)
  residual activity: 59.8%
PKN2 (human)
  residual activity: 64.3%
CDK9 CCNK (human)
  residual activity: 109%
CDK4 CCND3 (human)
  residual activity: 96.5%
CSNK1A1 (human)
  residual activity: 84.5%
FER (human)
  residual activity: 100%
MAPK8 (human)
  residual activity: 90.4%
IKBKB (human)
  residual activity: 95.7%
DAPK3 (human)
  residual activity: 96.4%
CSNK2A1 (human)
  residual activity: 99.3%
PRKD3 (human)
  residual activity: 92.7%
DCLK2 (human)
  residual activity: 109%
ACVR1B (human)
  residual activity: 108%
SLK (human)
  residual activity: 94.7%
CSNK1E (human)
  residual activity: 92.1%
CAMK2D (human)
  residual activity: 96%
PRKD1 (human)
  residual activity: 100%
PKN1 (human)
  residual activity: 94.5%
AKT3 (human)
  residual activity: 111%
STK33 (human)
  residual activity: 91.1%
IKBKE (human)
  residual activity: 86.8%
SGK2 (human)
  residual activity: 120%
HIPK3 (human)
  residual activity: 98.2%
JAK2 JH1 JH2 (human)
  residual activity: 107%
DYRK1A (human)
  residual activity: 95.4%
CLK2 (human)
  residual activity: 104%
STK11 (human)
  residual activity: 85.2%
PRKCE (human)
  residual activity: 108%
FLT1 (human)
  residual activity: 92.5%
PAK4 (human)
  residual activity: 124%
ULK2 (human)
  residual activity: 103%
PRKX (human)
  residual activity: 102%
STK17A (human)
  residual activity: 92.3%
PRKCD (human)
  residual activity: 83%
MAP3K14 (human)
  residual activity: 97.3%
PAK7 (human)
  residual activity: 119%
CDK5 CDK5R1 p35 (human)
  residual activity: 102%
MET (human)
  residual activity: 111%
PHKG1 (human)
  residual activity: 96.7%
GRK5 (human)
  residual activity: 108%
RPS6KB1 (human)
  residual activity: 91.3%

## Ic1cccc(CSc2nnc(-c3ccncc3)o2)c1
DSTYK (human)
  residual activity: 94.8%
ABL1 (human)
  residual activity: 107%
PKN2 (human)
  residual activity: 100%
CDK9 CCNK (human)
  residual activity: 105%
CDK4 CCND3 (human)
  residual activity: 97.5%
CSNK1A1 (human)
  residual activity: 97%
FER (human)
  residual activity: 101%
MAPK8 (human)
  residual activity: 84.7%
IKBKB (human)
  residual activity: 89.3%
DAPK3 (human)
  residual activity: 107%
CSNK2A1 (human)
  residual activity: 97.3%
PRKD3 (human)
  residual activity: 98.4%
DCLK2 (human)
  residual activity: 100%
ACVR1B (human)
  residual activity: 102%
SLK (human)
  residual activity: 98.6%
CSNK1E (human)
  residual activity: 94.3%
CAMK2D (human)
  residual activity: 96.8%
PRKD1 (human)
  residual activity: 97.6%
PKN1 (human)
  residual activity: 98.6%
AKT3 (human)
  residual activity: 90.7%
STK33 (human)
  residual activity: 111%
IKBKE (human)
  residual activity: 102%
SGK2 (human)
  residual activity: 102%
HIPK3 (human)
  residual activity: 99.1%
JAK2 JH1 JH2 (human)
  residual activity: 107%
DYRK1A (human)
  residual activity: 96.4%
CLK2 (human)
  residual activity: 104%
STK11 (human)
  residual activity: 103%
PRKCE (human)
  residual activity: 86.5%
FLT1 (human)
  residual activity: 91%
PAK4 (human)
  residual activity: 83.6%
ULK2 (human)
  residual activity: 111%
PRKX (human)
  residual activity: 78.2%
STK17A (human)
  residual activity: 95.8%
PRKCD (human)
  residual activity: 83.7%
MAP3K14 (human)
  residual activity: 88.3%
PAK7 (human)
  residual activity: 99.3%
CDK5 CDK5R1 p35 (human)
  residual activity: 102%
MET (human)
  residual activity: 88.7%
PHKG1 (human)
  residual activity: 105%
GRK5 (human)
  residual activity: 106%
RPS6KB1 (human)
  residual activity: 100%

## O=C1Nc2ccc(Br)cc2/C1=C\c1cc2c([nH]1)CCCC2
DSTYK (human)
  residual activity: 93.1%
ABL1 (human)
  residual activity: 91.8%
PKN2 (human)
  residual activity: 91.3%
CDK9 CCNK (human)
  residual activity: 96.7%
CDK4 CCND3 (human)
  residual activity: 99.8%
CSNK1A1 (human)
  residual activity: 100%
FER (human)
  residual activity: 74.7%
MAPK8 (human)
  residual activity: 107%
IKBKB (human)
  residual activity: 102%
DAPK3 (human)
  residual activity: 92.8%
CSNK2A1 (human)
  residual activity: 96.1%
PRKD3 (human)
  residual activity: 90.3%
DCLK2 (human)
  residual activity: 98.2%
ACVR1B (human)
  residual activity: 99%
SLK (human)
  residual activity: 73.4%
CSNK1E (human)
  residual activity: 84.3%
CAMK2D (human)
  residual activity: 84.2%
PRKD1 (human)
  residual activity: 93.8%
PKN1 (human)
  residual activity: 91.7%
AKT3 (human)
  residual activity: 96.6%
STK33 (human)
  residual activity: 77.3%
IKBKE (human)
  residual activity: 89.5%
SGK2 (human)
  residual activity: 101%
HIPK3 (human)
  residual activity: 96.7%
JAK2 JH1 JH2 (human)
  residual activity: 95.2%
DYRK1A (human)
  residual activity: 87.1%
CLK2 (human)
  residual activity: 88.6%
STK11 (human)
  residual activity: 88.7%
PRKCE (human)
  residual activity: 99.1%
FLT1 (human)
  residual activity: 73.4%
PAK4 (human)
  residual activity: 76.8%
ULK2 (human)
  residual activity: 114%
PRKX (human)
  residual activity: 97.2%
STK17A (human)
  residual activity: 72.9%
PRKCD (human)
  residual activity: 95.6%
MAP3K14 (human)
  residual activity: 112%
PAK7 (human)
  residual activity: 85.4%
CDK5 CDK5R1 p35 (human)
  residual activity: 84.6%
MET (human)
  residual activity: 81.6%
PHKG1 (human)
  residual activity: 60.2%
GRK5 (human)
  residual activity: 106%
RPS6KB1 (human)
  residual activity: 91.9%

Source: the kinase profiling compilation of Christmann-Franck et al. (2016)
